Data as given in patent US20080096770A1, “Evaluation of the Toxicity of Pharmaceutical Agents” (priority 2004, published 2008).
Where two headings read alike, the source gives them in different places.

Experiments:
Format in all cases: cell-based
[1] = tested on: TK6 human lymphoblastoid cells; conditions: for EC50: 24 h dilution series, determined by cell density and the Alamar Blue assay, read-out: approximated EC50 (cytotoxic concentration for 50% cell death; equicytotoxic concentration); for Cell Density (±S.D.): 24 h treatment at the optimized cytotoxic concentration (Table 1), aim 40-60% viability decrease
Experimental: (§1) The human lymphoblastoid cell line TK6 (ATCC, Manassas, Va.) was cultured in RPMI 1640 medium (with Glutamax and 10% FHS) at a cell density of 0.2×10^5 to 10×10^5 cells/ml. Cells were routinely subcultured starting from frozen aliquots after […]. For experiments, passage numbers between 3 to 15 were used.
(§2) Cytotoxic concentrations were determined either by measuring cell density on a Sysmex Cell Counter (Sysmex America, Inc., Mundelein, Ill.) or by metabolic cell activity using the Alamar Blue (Serotec Inc., Raleigh, N.C.) cytotoxicity assay. Alamar Blue indicator dye quantitatively measures proliferation in human and other cells. Alamar Blue is a sensitive fluorimetric and calorimetric reagent sensitive to the redox state of the growth medium. Cell density by Sysmex was measured after the 24 h treatment. Cytotoxicity by Alamar Blue was measured 3 hours prior to end of treatment, i.e., at 21 hours. 200 III of cell suspension were mixed with 20 μl of Alamar Blue reagent in a 96-well plate and measured once/hour using a fluorescence plate reader with 544 nm excitation and 612 nm emission filters. Cell suspension samples from the cytotoxicity dilution series were analyzed for cytometry endpoints by Laser Scanning Cytometry.
(§3) TK6 human lymphoblastoid cells were exposed to following treatments (24 hours, 0.15×10^6 cells/ml):
Dose-response determination to provide the doses given in column 4 of Table 1 was carried out with an initial cell density of 0.15×10^6 cells/ml (see Example 1).
(§4) The six model compounds identified in Table 1 were applied in a dilution series to TK6 cells. The resulting dilution series for each of the six compounds provided individually optimized cytotoxic concentrations for 50% cell death (EC50) as determined by cell density and the Alamar Blue assay. It is possible that cell density and the Alamar Blue assay may not give identical cytotoxicity profiles. Thus, concentrations of the compounds were optimized with the objective to have both cytotoxicity parameters within the range of 40-60% viability decrease. In addition, for representative dilution series several cytometry endpoints were analyzed (BrdU incorporation, KI-67 staining (Histogenex, Edegem, Belgium), propidium iodide staining), although these parameters were not used for concentration selection.

[2] = tested on: TK6 human lymphoblastoid cells; assay: Alamar Blue cytotoxicity assay (metabolic cell activity); conditions: measured at 21 hours, at the optimized cytotoxic concentration (Table 1), aim 40-60% viability decrease
Experimental: as §1, §2, §3, §4

[3] = tested on: TK6 human lymphoblastoid cells; assay: Microarray gene expression profiling with PLS-DA / KNN discrimination of cytotoxic versus genotoxic compounds (Examples 1-7); conditions: 24 h
Experimental: Total RNA was isolated after 24 hours of treatment with the agents or control using Qiagen's (Hilden, Germany) RNeasy Mini Kits. Samples were made up of 10 ml TK6 cell suspensions with an approximate cell density of 0.3×10^6 cells/ml. Column-purified RNA was eluted with 40 μl water and quality-checked by UV spectrometry and Agilent's “lab-on-a-chip” technology (RNA nano chip, Bioanalyzer 2100, Agilent Technologies, Santa Clara, Calif.). RNA extraction and purification is described by the manufacturer of the GeneChip system.
Purified total human TK6 RNA was analyzed using the human specific Human Genome U133, 2.0 array (Affymetrix). […] Sequences used in the design of the array were selected from GenBank®, dbEST, and RefSeq.
The resulting primary raw data, the image files (.dat files), were processed using the Microarray Analysis Suite 5 (MAS5) software (Affymetrix). Tab-delimited files were obtained containing data regarding signal intensity (Signal) and categorical expression level measurement (Absolute Call).
The raw data obtained from the GeneChip by MAS5 were imported to GeneSpring 7.2 for analysis. Data were normalized per chip and per gene to the respective median. Genes were annotated according to LocusLink nomenclature (http://www.ncbi.nlm.nih.gov/LocusLink/).
Filtering of the data was performed according to following criteria for each gene:
Fold-change refers to the ratio of genotoxic versus cytotoxic. Since these studies seek robust predictor genes the limit ratios (1.4 and 0.7) were selected in order to excluded genes that show consistent but only small differences. […]
PLS-DA was applied iteratively to the gene expression data with cyto- and genotcoxicity as class variables. […] The final model was validated by response permutation; i.e. the class membership of each sample was randomly attributed, evaluated by the model and contrasted to the solution of the model with the original class membership. […]

[4] = tested on: TK6 human lymphoblastoid cells; conditions: dilution series up to or around the EC50 values (FIG. 1)
Experimental: FIG. 1. Graphical representation of the percentage of cells in G2 phase as a function of dilution of the indicated genotoxic and nongenotoxic compounds (points 1-9), with control samples at points 10-12. An original color image has been converted to grayscale by computer.
as §2
The six model compounds identified in Table 1 were applied in a dilution series to TK6 cells. […]

[5] = TK6 cells, equicytotoxic concentrations, cytotoxic samples above or at 0, genotoxic samples below 0

SMILES | EC50 ([1]; listed as tPt) | Cell Density (±S.D.) [1] | Alamar Blue (±S.D.) [2] | scores of first component t[1] of PLS-DA with all 215 genes (FIG. 4) [3, 5] | shifts in cell cycle parameters / G2 phase block [4] | EC50 [1] | scores of first component t[1] of PLS-DA with all 215 genes (FIG. 4) ([3]; human)
N.N.[Cl][Pt][Cl] [trans-Platinum, trans-diammineplatinum(II) dichloride] | 33 µM | 58 ± 7% | 36 ± 13% |  |  |  | 
CO[C@@]12[C@H](COC(N)=O)C3=C(C(=O)C(C)=C(N)C3=O)N1C[C@@H]1N[C@@H]12 [Mitomycin C] |  | 53 ± 3% | 48 ± 1% |  |  |  | 
[Cl-].[Na+] [NaCl] |  | 30 ± 4% | 65 ± 5% | above or at t[1]=0 | no significant shifts in cell cycle parameters |  | 
N.N.[Cl][Pt][Cl] [cis-Platinum, cis-diammineplatinum(II) dichloride] |  | 53 ± 4% | 46 ± 5% |  |  | 1.3 µM | 
COS(C)(=O)=O [Methyl methanesulfonate] |  | 44 ± 2% | 43 ± 8% |  |  |  | below t[1]=0
CO[C@H]1/C=C/O[C@@]2(C)Oc3c(C)c(O)c4c(O)c(c(/C=N/N5CCN(C)CC5)c(O)c4c3C2=O)NC(=O)/C(C)=C\C=C\[C@H](C)[C@H](O)[C@@H](C)[C@@H](O)[C@@H](C)[C@H](OC(C)=O)[C@@H]1C [Rifampicin] |  | 52 ± 9% | 61 ± 8% | above or at t[1]=0 | no significant shifts in cell cycle parameters |  | 
